Source: patent publication US8207212B2, “Methods and devices for epithelial protection during photodynamic therapy” (The General Hospital Corporation, priority 2003, dated 2012)

Tests used:
[1] = tested on: rat epidermal keratinocyte (REK) cells; test: PpIX formation in rat epidermal keratinocyte cells incubated with ALA at different temperatures; assay type: cell-based; details: 0.5 mM ALA, after three hours (FIG. 2)
Description: Two trials of rat epidermal keratinocyte (REK) cells were incubated with 0.5 mM ALA at temperatures of 21° C. and 37° C., respectively, for varying times. […] Accordingly, a temperature gradient of about 16° C. is more than sufficient to inhibit metabolism of a photosensitizing agent in epidermal tissue surrounding a targeted treatment site.
Several trials of rat epidermal keratinocyte (REK) cells were incubated with various amounts of ALA ranging from 0.1 mM to 0.5 mM, at various temperatures ranging from 15° C. to 40° C.

[2] = tested on: rat epidermal keratinocyte (REK) cells; test: Effect of DOHA pre-incubation on ALA-induced PpIX formation in REK cells; assay type: cell-based; details: washed, then 0.25 mM ALA for 3 hours (FIG. 4)
Description: Several trials of rat epidermal keratinocyte (REK) cells were pre-incubated with various amounts of 4-dioxoheptanoic acid (DOHA) ranging from 1^−8 M to 1^−4 M. The cells were then washed, and incubated with 0.25 mM ALA for 3 hours.

human skin = test: PpIX fluorescence imaging in human skin after topical DOHA followed by topical ALA; details: human skin in vivo, DOHA topical 0.1%, 0.3%, 1% for 1 hour, followed by topical 5% ALA (FIG. 6)
Description: DOHA was topically applied to human skin in concentrations of (a) 0.1%, (b) 0.3%, and (c) 1% for 1 hour, followed by topical application of 5% ALA. PpIX fluorescence was then imaged.

Compound	PpIX concentration ([1]; 21° C.)	PpIX concentration ([1]; 37° C.)	PpIX formation ([2]; REK cells pre-incubated with DOHA at concentrations greater than 10^−5 M)	PpIX formation ([2]; REK cells pre-incubated with DOHA at concentrations greater than 10^−7 M)	PpIX formation (fluorescence) (human skin)
NCC(=O)CCC(=O)O [ALA, aminolevulinic acid]	less than 50 pmol/10^6	greater than 400 pmol/10^6			
CC(=O)CC(=O)CCC(=O)O [DOHA, 4-dioxoheptanoic acid]			even further chemical inhibition	significantly inhibited	effective to chemically inhibit PpIX formation
